Data on two compounds can be found in patent US11311543B2, “Compositions and methods for inhibiting PTPN22” (YALE UNIVERSITY, priority 2016, dated 2022).

One data set has as its system LYN. The data set is described as follows: Phosphorylation kinetics of LYN in RAMOS cells after BCR triggering (immunoblot). In kind it is cell-based, human. The note with it: LTV-1 5 μg/mL. On the procedure:
(§1) FIG. 40A depicts the phosphorylation of SHIP1, Lyn and ERK1/2 in total cell lysates of Ramos B cells treated or not with the PTPN22 inhibitor LTV-1 (5 μg/mL) for the indicated times. The cells were subjected to immunoblot analysis of P-LYN P-SHIP1, P-ERK1/2, and β-ACTIN. FIG. 40B depicts flow cytometry analysis of calcium flux of Ramos B cells treated or not with the PTPN22 inhibitor LTV-1 (5 μg/mL) for the indicated times followed by stimulation with anti-IgM F(ab′)2 at the indicated concentrations. FIG. 40C depicts flow cytometry analysis of calcium flux of splenocyte cells treated or not with LTV-1 (0.75 mg) twice daily for 7 days and stimulated with anti-IgM F(ab′)2 (25 μg/mL). FIG. 40D depicts flow cytometry analysis of calcium flux of splenocyte expressing PTPN22 shRNA and stimulated with anti-IgM F(ab′)2 (25 μg/mL).
(§2) However, downstream ERK phosphorylation was not affected by PTPN22 inhibition (FIG. 40A). Since PTPN22 inhibition enhanced TCR signaling in Jurkat cell line, it was investigated if PTPN22 blockade may also increase BCR signaling and calcium flux induced by BCR triggering was measured in RAMOS cells in the presence or not of LTV-1. Calcium flux was increased by PTPN22 inhibition, especially at lower concentration of BCR triggering agent (FIG. 40B). […]
In general terms: A western blot detects proteins with antibodies after separation by electrophoresis.

For the next data set, the system named is ERK. The data set is described as follows: Phosphorylation kinetics of ERK in RAMOS cells after BCR triggering (immunoblot). Format: cell-based, human. The note with it: LTV-1 5 μg/mL. On the procedure:
as §1, §2

The next data set relates to mature naive B cells. The data set is described as follows: Peripheral B cell tolerance checkpoint in NSG+thymus mouse carrying the 1858T PTPN22 allele. Format: in vivo, NSG mouse engrafted with human fetal HSCs and thymic tissue. The note with it: LTV-1 0.75 mg twice daily for a month. On the procedure:
FIG. 41A depicts a schematic diagram depicting the LTV-1 PTPN22 inhibitor treatment strategy. A NSG+thymus mouse generated with CD34^+ HSCs and thymic graft carrying the 1858T PTPN22 allele was injected twice daily with 0.75 mg of PTPN22 inhibitor for four weeks. FIG. 41B depicts the frequencies of HEp-2 reactive mature naive B cells from NSG+thymus mice treated or not with the PTPN22 inhibitor were determined. […] For each B cell fraction, the frequency of reactive (filled area) and non-reactive (open area) clones is summarized in pie charts with the total number of clones tested indicated in the center. In summarized reactivity panels on the right, each symbol represents either a subject or a humanized mouse. Averages are shown with a bar. Statistically significant differences are indicated ****P≤0.0001, ***P≤0.001. FIG. 41C depicts the frequencies of polyreactive mature naive B cells from NSG+thymus mice treated or not with the PTPN22 inhibitor were determined. […] For each B cell fraction, the frequency of reactive (filled area) and non-reactive (open area) clones is summarized in pie charts with the total number of clones tested indicated in the center. In summarized reactivity panels on the right, each symbol represents either a subject or a humanized mouse. Averages are shown with a bar. Statistically significant differences are indicated ****P≤0.0001, ***P≤0.001. […]

Another data set relates to PTPN22. Put plainly: PTPN22 protein expression in GFP+ shRNA+ developing B cells from spleen of NSG mice. The conditions noted are these: GFP+ vs GFP- hCD19+ cells from spleen of NSG mice. In kind it is in vivo, human. The source says:
FIG. 9A depicts a schematic of the experimental design. CD34+ HSCs carrying PTPN22 T allele(s) were transduced with lentiviruses allowing the expression of PTPN22 shRNA before injection in the liver of 3 day-old NSG mice. FIG. 9B depicts representative flow cytometry analysis of CD19+ cells isolated from the spleen of NSG mouse engrafted with PTPN22 C/T HSCs transduced with a GFP-tagged lentivirus expressing PTPN22 specific shRNA. CD19+ B cells were stained with anti-hCD19, anti-IgM and anti-hCD10 antibodies. The frequencies of GFP− and GFP+ shRNA+ new emigrant B cells are shown. […] The frequencies of polyreactive new emigrant B cells from sorted GFP+ fractions expressing PTPN22 shRNA were determined and compared to those of GFP− new emigrant B cells. […] The frequencies of HEp-2 reactive new emigrant B cells from sorted GFP+ fractions expressing PTPN22 shRNA were determined and compared to those of GFP− new emigrant B cells. […]
Total cell lysates were separated by SDS page, transferred to PVDF membranes, probed with mouse anti-PTPN22 (Invitrogen) and detected by chemiluminescence (Amersham ECL Prime Western Blotting detection Reagent) using a GBox documentation system (Syngene). For quantification, blots were stripped with stripping buffer (Pierce) and reprobed with a mouse anti-β-Actin antibody (Sigma-Aldrich).

In the case of `Cc1ccccc1N1C(=O)/C(=C/c2ccc(OCc3cccc(C(=O)O)c3)cc2)C(=O)NC1=S` [LTV-1], the “phosphorylation of LYN at position Y396” value in the data set on LYN is reported as “decreases”. In addition, the “downstream ERK phosphorylation” value with ERK was “not affected”. Besides, the “impaired peripheral B cell tolerance checkpoint (autoreactive mature naive B cells)” value with mature naive B cells is “effectively restored”.
In the case of “shRNA #1: shRNA targeting human PTPN22, 5′-CTAGTGCTCTTGGTGTATATT-3′, delivered by GFP-tagged lentivirus”, the “decrease of PTPN22 expression in developing B cells” value in the data set on PTPN22 is reported as “more than 90%”.
